System: cerebral tissues in the cerebral ischemia-reperfusion I/R model in mice
Experiment: Histological evaluation (H&E) of cerebral tissues in the cerebral ischemia-reperfusion I/R model
Type: in vivo
Details: right hemisphere hippocampus; termination day 15 or day 29; compared to PBS negative control (2M)
From the text: At termination of the experiment, at either day 15 or day 29, the mice cerebral tissues were subjected to histopathological examinations.
The tissues were studied for pyknotic score (which assesses the extent of cell necrosis and death) and for vacuolisation (which assesses the extent of degeneration similar to apoptosis).
At termination the animals were sacrificed by CO2 asphyxiation. Where possible, half of the animals were sacrificed on day 15, and the other half were sacrificed on day 29. […] Brains were also harvested following saline perfusion. The right hemisphere of each brain was fixed with 2.5% Paraformaldehyde and stored at 2-8° C.
The sections of the right hemisphere of all animals per group were loaded onto slides followed by histological examination. Tissues were trimmed, embedded in paraffin, sectioned at approximately 5 microns thickness and stained with Hematoxylin & Eosin (H&E) (as well as with TUNEL reagents) using standardized protocols. The slides were examined under a light microscope. […]
The numbers of karyopy-knosis and apoptotic cells were counted, and the mean values were calculated. […] Ten field of ×20 magnifications were evaluated for the pyknosis and vacuolization score as follows.
Pyknosis and vacuolization, semi-quantitative scores: • 1. […]
A score was determined for each field of ×20 magnification for each mouse in a given sample group.

C[C@]12N[C@H](Cc3ccccc31)c1ccccc12 [MK-801]
semi-quantitative pyknosis score (H&E): reduced pyknosis score | semi-quantitative vacuolisation score (H&E): did not reduce the vacuolisation score

Source: patent US11123378B2, “Compositions comprising bacterial strains” (4D Pharma Research Limited, priority 2017, dated 2021)
